One assay has as its target T1, Human HDAC4 (Homo sapiens, UniProt P56524).
T1 construct: amino acids 627-1085 with N-terminal GST tag; GST (N); host or cells: baculovirus expression system
Kind of assay: HDAC4 biochemical assay, class IIa-specific substrate. The note with it: read-out: HDAC Isoform IC50 (nM) 4. The essentials: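 GST-tagged human HDAC4 (aa 627-1085, baculovirus) at 0.004 ng/ul was incubated 30 min at room temperature with 50 μM class IIa-specific substrate BOC-Lys(trifluoroacetyl)-AMC in Tris-HCl pH 8.0 buffer with BSA, 1% DMSO. Developer then released AMC, read at 360/460 nm.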

The next assay concerns the target T2, Human HDAC9 (Homo sapiens, UniProt Q9UKV0).
T2 construct: amino acids 604-1066 with C-terminal His tag; His (C); host or cells: baculovirus expression system
Kind of assay: HDAC9 biochemical assay, class IIa-specific substrate. The conditions noted are these: read-out: HDAC Isoform IC50 (nM) 9. The essentials:
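HDAC9 residues 604-1066 (C-terminal His tag, baculovirus-expressed) at 0.06 ng/ul with 50 μM class IIa substrate Boc-Lys(trifluoroacetyl)-AMC in Tris-HCl pH 8.0 buffer with BSA and 1% DMSO. 30 min at room temperature, then developer added; fluorescence read at 360/460 nm Ex/Em.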

Another assay concerns the target T3, Recombinant human HDAC6 (Homo sapiens, UniProt Q9UBN7).
T3 construct: full length, MW=159 kDa; GST (N); host or cells: Sf9 insect cells (baculovirus)
T3 sequence (Q9UBN7 1-1215): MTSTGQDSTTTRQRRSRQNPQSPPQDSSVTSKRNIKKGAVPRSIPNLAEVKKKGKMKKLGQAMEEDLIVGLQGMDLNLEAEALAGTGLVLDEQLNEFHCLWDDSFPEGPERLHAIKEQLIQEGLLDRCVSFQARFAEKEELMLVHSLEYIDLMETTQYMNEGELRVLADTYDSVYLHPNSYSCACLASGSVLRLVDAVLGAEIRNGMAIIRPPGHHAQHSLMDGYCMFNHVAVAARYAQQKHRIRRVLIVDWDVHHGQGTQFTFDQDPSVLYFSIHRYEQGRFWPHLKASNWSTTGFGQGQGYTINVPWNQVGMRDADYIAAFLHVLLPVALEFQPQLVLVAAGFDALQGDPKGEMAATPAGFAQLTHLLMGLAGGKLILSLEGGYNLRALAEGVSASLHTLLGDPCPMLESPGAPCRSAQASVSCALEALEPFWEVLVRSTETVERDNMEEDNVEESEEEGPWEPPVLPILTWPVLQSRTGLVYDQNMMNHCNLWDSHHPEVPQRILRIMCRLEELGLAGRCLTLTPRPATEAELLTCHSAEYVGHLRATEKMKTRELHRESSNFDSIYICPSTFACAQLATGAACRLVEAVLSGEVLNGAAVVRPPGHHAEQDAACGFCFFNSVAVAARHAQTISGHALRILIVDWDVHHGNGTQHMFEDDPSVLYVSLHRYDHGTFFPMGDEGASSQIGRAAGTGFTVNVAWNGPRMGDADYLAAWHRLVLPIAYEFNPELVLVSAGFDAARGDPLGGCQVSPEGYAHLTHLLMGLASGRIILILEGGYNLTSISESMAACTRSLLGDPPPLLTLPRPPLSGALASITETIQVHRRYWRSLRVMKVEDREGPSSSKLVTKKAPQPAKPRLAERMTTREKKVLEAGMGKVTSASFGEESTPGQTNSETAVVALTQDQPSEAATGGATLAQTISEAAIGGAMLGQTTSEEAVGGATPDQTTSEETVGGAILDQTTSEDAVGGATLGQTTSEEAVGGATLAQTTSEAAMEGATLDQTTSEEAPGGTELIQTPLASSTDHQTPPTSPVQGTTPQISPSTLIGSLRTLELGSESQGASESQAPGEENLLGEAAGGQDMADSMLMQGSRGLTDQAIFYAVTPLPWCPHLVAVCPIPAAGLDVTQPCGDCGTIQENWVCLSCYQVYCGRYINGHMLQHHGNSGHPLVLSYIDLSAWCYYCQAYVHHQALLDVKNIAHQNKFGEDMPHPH
Kind of assay: HDAC6 biochemical assay, AMC-labeled peptide substrate. The conditions noted are these: HDAC6; read-out: HDAC Isoform IC50 (nM) 6. The essentials:
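Two-step fluorogenic read-out: enzyme deacetylates 50 μM RHKK(Ac)AMC for 1 h at 30° C in pH 8.0 Tris buffer with BSA and 1% DMSO, then developer cleavage gives signal at Ex 360/Em 460. Enzyme: 0.3 ng/ul recombinant full-length human HDAC6, GST-tagged, Sf9-expressed.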

The target of another assay is T4, Human HDAC1 (Homo sapiens, UniProt Q13547).
T4 construct: full length with C-terminal His-tag and C-terminal FLAG-tag; His (C); FLAG (C); host or cells: baculovirus expression system
T4 sequence (Q13547 whole entry): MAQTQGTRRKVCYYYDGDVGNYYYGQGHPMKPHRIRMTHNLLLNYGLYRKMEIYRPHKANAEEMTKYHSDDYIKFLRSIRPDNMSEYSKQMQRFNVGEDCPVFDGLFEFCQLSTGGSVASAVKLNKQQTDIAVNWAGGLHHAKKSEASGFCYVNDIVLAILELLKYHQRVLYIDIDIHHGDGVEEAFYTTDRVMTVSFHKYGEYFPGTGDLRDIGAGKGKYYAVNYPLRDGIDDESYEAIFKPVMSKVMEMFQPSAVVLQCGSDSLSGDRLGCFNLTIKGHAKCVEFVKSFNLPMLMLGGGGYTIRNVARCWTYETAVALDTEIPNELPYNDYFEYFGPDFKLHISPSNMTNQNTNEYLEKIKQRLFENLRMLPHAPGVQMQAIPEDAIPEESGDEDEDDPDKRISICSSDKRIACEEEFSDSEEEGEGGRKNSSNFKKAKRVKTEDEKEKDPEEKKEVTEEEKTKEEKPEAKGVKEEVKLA
Kind of assay: HDAC1 biochemical assay, AMC-labeled peptide substrate. The note with it: read-out: HDAC Isoform IC50 (nM) 1. The essentials:
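Baculovirus-expressed full-length human HDAC1 with His and FLAG tags, 0.3 ng/ul, incubated 1 h at 30° C with compound and 50 μM RHKK(Ac)AMC in Tris pH 8.0 buffer with BSA and 1% DMSO. Developer then releases AMC from deacetylated substrate; fluorescence read at 360/460 nm.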

The next assay addresses T5, Human HDAC5 (Homo sapiens, UniProt Q9UQL6).
T5 construct: full length with C-terminal His tag, MW=51.1 kDa; His (C); host or cells: baculovirus expression system
In words: HDAC5 biochemical assay, class IIa-specific substrate. The note with it: read-out: HDAC Isoform IC50 (nM) 5. The essentials: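 Full-length C-terminal His-tagged HDAC5 from baculovirus (0.05 ng/ul) incubated 30 min at room temperature with 50 μM Boc-Lys(trifluoroacetyl)-AMC and compound, Tris pH 8.0 buffer with BSA, 1% DMSO. Developer then releases AMC; fluorescence 360/460 nm.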

The target of a further assay is T6, Human HDAC7 (Homo sapiens, UniProt Q8WUI4).
T6 construct: (a.a. 518-end) with N-terminal GST tag; GST (N); host or cells: baculovirus expression system
T6 sequence (Q8WUI4 518-952 limits assumed): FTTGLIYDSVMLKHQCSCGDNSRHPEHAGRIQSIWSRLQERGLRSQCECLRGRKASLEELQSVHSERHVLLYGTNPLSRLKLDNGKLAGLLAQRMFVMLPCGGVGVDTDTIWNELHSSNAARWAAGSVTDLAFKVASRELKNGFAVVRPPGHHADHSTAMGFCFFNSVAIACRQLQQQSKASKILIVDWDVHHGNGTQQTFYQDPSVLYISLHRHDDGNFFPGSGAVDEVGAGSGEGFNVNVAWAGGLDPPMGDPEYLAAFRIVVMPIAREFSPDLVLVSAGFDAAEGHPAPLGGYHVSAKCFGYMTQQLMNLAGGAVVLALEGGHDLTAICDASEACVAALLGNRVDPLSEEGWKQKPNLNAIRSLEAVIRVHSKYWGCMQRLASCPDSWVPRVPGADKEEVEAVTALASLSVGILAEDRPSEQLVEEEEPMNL
Kind of assay: HDAC7 biochemical assay, class IIa-specific substrate. The note with it: read-out: HDAC Isoform IC50 (nM) 7. The essentials:
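GST-tagged HDAC7 (a.a. 518-end, baculovirus-expressed) at 0.001 ng/ul with 50 μM Boc-Lys(trifluoroacetyl)-AMC substrate, 30 min at room temperature in pH 8.0 Tris buffer with BSA, 1% DMSO final. Developer then releases AMC; fluorescence read at 360/460 nm.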

The results in this text go back to patent publication US20210038607A1, “OXADIAZOLYLTHIOPHENE DERIVATIVES USEFUL AS HISTONE DEACETYLASE INHIBITORS” (Karus Therapeutics Limited, priority 2018, published 2021).

As usually defined, the IC50 is the concentration at which inhibition is half-maximal.

T5 sequence (Q9UQL6 656-1122 limits assumed): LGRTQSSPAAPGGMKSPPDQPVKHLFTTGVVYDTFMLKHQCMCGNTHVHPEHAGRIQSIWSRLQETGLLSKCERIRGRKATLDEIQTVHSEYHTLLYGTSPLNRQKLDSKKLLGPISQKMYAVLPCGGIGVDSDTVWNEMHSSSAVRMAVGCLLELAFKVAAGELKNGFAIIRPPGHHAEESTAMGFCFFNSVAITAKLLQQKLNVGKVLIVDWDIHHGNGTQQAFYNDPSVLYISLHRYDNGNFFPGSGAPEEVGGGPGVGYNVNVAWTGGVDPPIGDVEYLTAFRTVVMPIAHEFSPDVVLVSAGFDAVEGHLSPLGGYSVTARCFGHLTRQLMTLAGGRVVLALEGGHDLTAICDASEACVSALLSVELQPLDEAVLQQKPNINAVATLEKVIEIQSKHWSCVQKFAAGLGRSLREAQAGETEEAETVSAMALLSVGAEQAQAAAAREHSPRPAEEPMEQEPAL
T1 sequence (P56524 627-1084 limits assumed): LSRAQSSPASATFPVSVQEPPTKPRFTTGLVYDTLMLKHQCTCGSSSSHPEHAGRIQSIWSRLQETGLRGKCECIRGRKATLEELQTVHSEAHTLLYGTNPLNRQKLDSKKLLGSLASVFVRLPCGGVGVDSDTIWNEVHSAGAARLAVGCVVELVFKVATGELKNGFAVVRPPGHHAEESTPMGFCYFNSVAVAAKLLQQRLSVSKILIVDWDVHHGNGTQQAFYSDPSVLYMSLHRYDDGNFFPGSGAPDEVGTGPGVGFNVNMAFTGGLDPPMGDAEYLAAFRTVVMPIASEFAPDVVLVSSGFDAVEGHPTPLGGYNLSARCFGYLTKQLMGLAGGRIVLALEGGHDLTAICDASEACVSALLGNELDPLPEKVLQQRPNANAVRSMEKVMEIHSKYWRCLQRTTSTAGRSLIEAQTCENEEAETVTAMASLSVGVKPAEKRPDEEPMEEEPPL
T2 sequence (Q9UKV0 604-1066 isoform Q9UKV0-5): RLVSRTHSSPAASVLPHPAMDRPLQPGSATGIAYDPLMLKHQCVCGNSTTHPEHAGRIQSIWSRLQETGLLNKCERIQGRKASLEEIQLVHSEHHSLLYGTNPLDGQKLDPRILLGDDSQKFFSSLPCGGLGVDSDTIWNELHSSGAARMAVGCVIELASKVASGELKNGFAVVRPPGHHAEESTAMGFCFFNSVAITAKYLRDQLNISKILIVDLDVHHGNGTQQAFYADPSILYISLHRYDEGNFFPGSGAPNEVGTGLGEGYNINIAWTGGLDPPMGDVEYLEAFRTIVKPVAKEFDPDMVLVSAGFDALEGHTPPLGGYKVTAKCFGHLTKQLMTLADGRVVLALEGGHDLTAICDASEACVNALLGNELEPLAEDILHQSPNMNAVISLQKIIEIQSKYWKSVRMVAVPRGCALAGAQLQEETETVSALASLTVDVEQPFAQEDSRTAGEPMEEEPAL

Consider `FC(F)(F)c1nc(-c2ccc(CN(c3cnccn3)c3cncnc3C3CC3)s2)no1` [Example CZ, 4-Cyclopropyl-N-(pyrazin-2-yl)-N-({5-[5-(trifluoromethyl)-1,2,4-oxadiazol-3-yl]thiophen-2-yl}methyl)pyrimidin-5-amine], for which the IC50 was at most 500 nM at Human HDAC4; at most 1000 nM at Human HDAC9; at most 10000 nM on Recombinant human HDAC6; over 10000 nM on Human HDAC1; at most 500 nM on Human HDAC5; at most 500 nM at Human HDAC7.
Turning to `FC(F)(F)c1cnnc(N(Cc2ccc(-c3noc(C(F)(F)F)n3)s2)c2ccc(C(F)(F)F)nn2)c1` [Example EV, 6-(Trifluoromethyl)-N-({5-[5-(trifluoromethyl)-1,2,4-oxadiazol-3-yl]thiophen-2-yl}methyl)-N-[5-(trifluoromethyl)pyridazin-3-yl]pyridazin-3-amine], the IC50 at Human HDAC4 was at most 10000 nM; on Human HDAC9, over 10000 nM; at Recombinant human HDAC6, at most 10000 nM; on Human HDAC1 it was over 10000 nM; on Human HDAC5, at most 10000 nM; on Human HDAC7 it was at most 10000 nM.
Regarding `Cn1cnc2cc(N(Cc3ccc(-c4noc(C(F)(F)F)n4)s3)c3cnccn3)ncc21` [Example AE, N-{3-Methyl-3H-imidazo[4,5-c]pyridin-6-yl}-N-({5-[5-(trifluoromethyl)-1,2,4-oxadiazol-3-yl]thiophen-2-yl}methyl)pyrazin-2-amine], the IC50 on Human HDAC4 was at most 500 nM; on Human HDAC9 it was at most 10000 nM; at Recombinant human HDAC6 it was at most 10000 nM; on Human HDAC1, over 10000 nM; at Human HDAC5 it was at most 500 nM; on Human HDAC7 it was at most 1000 nM.
Take `COc1cnnc(N(Cc2ccc(-c3noc(C(F)(F)F)n3)s2)c2cnccn2)c1` [Example DV, 5-Methoxy-N-(pyrazin-2-yl)-N-({5-[5-(trifluoromethyl)-1,2,4-oxadiazol-3-yl]thiophen-2-yl}methyl)pyridazin-3-amine]: the concentration for half-maximal inhibition (IC50) at Human HDAC4 was at most 10000 nM; at Human HDAC9, at most 10000 nM; on Recombinant human HDAC6, at most 10000 nM; on Human HDAC1, over 10000 nM; at Human HDAC5 it was at most 1000 nM; at Human HDAC7, at most 10000 nM.
With `FC(F)(F)c1nc(-c2ccc(CN(c3cccnc3)c3cnccn3)s2)no1` [Example AO, N-(Pyridin-3-yl)-N-({5-[5-(trifluoromethyl)-1,2,4-oxadiazol-3-yl]thiophen-2-yl}methyl)pyrazin-2-amine], the IC50 was at most 500 nM on Human HDAC4; at most 1000 nM at Human HDAC9; at most 500 nM at Recombinant human HDAC6; over 10000 nM at Human HDAC1; at most 500 nM on Human HDAC5; at most 500 nM at Human HDAC7.
In the case of `Cc1cncc(N(Cc2ccc(-c3noc(C(F)(F)F)n3)s2)c2cncc(C)n2)n1` [Example BX, 6-Methyl-N-(6-methylpyrazin-2-yl)-N-({5-[5-(trifluoromethyl)-1,2,4-oxadiazol-3-yl]thiophen-2-yl}methyl)pyrazin-2-amine], the IC50 on Human HDAC4 was over 10000 nM; at Human HDAC9, at most 10000 nM; on Recombinant human HDAC6 it was at most 10000 nM; at Human HDAC1, over 10000 nM; on Human HDAC5, at most 10000 nM; on Human HDAC7, at most 10000 nM.
Take `Fc1cc(-c2noc(C(F)(F)F)n2)sc1CN(c1cnccn1)c1cnccn1` [Example EY, N-({3-Fluoro-5-[5-(trifluoromethyl)-1,2,4-oxadiazol-3-yl]thiophen-2-yl}methyl)-N-(pyrazin-2-yl)pyrazin-2-amine]: the IC50 is at most 10000 nM at Human HDAC4; at most 10000 nM on Human HDAC9; at most 500 nM at Recombinant human HDAC6; over 10000 nM at Human HDAC1; at most 500 nM at Human HDAC5; at most 1000 nM on Human HDAC7.
Take `FC(F)(F)c1ncc(N(Cc2ccc(-c3noc(C(F)(F)F)n3)s2)c2cnccn2)cn1` [Example CV, N-(Pyrazin-2-yl)-2-(trifluoromethyl)-N-({5-[5-(trifluoromethyl)-1,2,4-oxadiazol-3-yl]thiophen-2-yl}methyl)pyrimidin-5-amine]: the IC50 on Human HDAC4 was at most 1000 nM; on Human HDAC9, at most 10000 nM; on Recombinant human HDAC6 it was at most 10000 nM; at Human HDAC1, over 10000 nM; at Human HDAC5 it was at most 1000 nM; at Human HDAC7, at most 1000 nM.
`Cc1cncc(N(Cc2ccc(-c3noc(C(F)(F)F)n3)s2)c2cc(C(F)(F)F)cnn2)n1` [Example EM, N-(6-Methylpyrazin-2-yl)-5-(trifluoromethyl)-N-({5-[5-(trifluoromethyl)-1,2,4-oxadiazol-3-yl]thiophen-2-yl}methyl)pyridazin-3-amine]: the IC50 on Human HDAC4 is at most 10000 nM; at Human HDAC9, over 10000 nM; at Recombinant human HDAC6, at most 1000 nM; on Human HDAC1 it was over 10000 nM; on Human HDAC5 it was at most 10000 nM; at Human HDAC7 it was at most 10000 nM.
Consider `FC(F)(F)c1nc(-c2ccc(CN(c3ccc(N4CCCC4)nc3)c3cnccn3)s2)no1` [Example AP, N-[6-(Pyrrolidin-1-yl)pyridin-3-yl]-N-({5-[5-(trifluoromethyl)-1,2,4-oxadiazol-3-yl]thiophen-2-yl}methyl)pyrazin-2-amine], for which the IC50 at Human HDAC4 is at most 10000 nM; at Human HDAC9, at most 10000 nM; on Recombinant human HDAC6, over 10000 nM; on Human HDAC1, over 10000 nM; at Human HDAC5, at most 10000 nM; on Human HDAC7 it was at most 10000 nM.
